Data set [1] can be described thus: Water solubility (HPLC). The settings on record: room temperature, sonicated one hour. The data set is classed as physicochemical. The protocol:
Aliquots of 50 μM PP1 and FF in DMSO were added to 500 μl to heparinized human blood to a final concentration of 50 μM. Following incubation at 37° C. for the indicated time points, the samples were frozen at −80° C., and later prepared for HPLC-based detection of the compounds. Please note that FF is converted to FA in the presence of human blood. […] Data represent average values with standard deviation (n=3). panel B: Water solubility. FF and PP1, were added to water to a final concentration of 50 mM and sonicated in an ultrasonic bath (Branson 1510 Digital Heated Ultrasonic bath) for one hour at room temperature. The samples were then centrifuged for 10 minutes at 16000×g, and the supernatant filtered through 0.45 μm syringe filter. Water solubilized PP1 and FF were subsequently processed for HPLC analysis (see Methods). Data represent average values with standard deviation (n=3). panel C: Effects of PP compounds on PPAR responsive elements (PPRE). The PPAR transcriptional activity was determined in HepG2 cells by the JsTkpGL3 reporter plasmid, which contains a firefly luciferase gene driven by the PPRE, which consists of three copies of the J site from the apo-AII gene promoter. […] The luciferase activity was detected with Dual-Luciferase reporter assay system (Promega, Madison, Wis.), and the resulting luminescence measured with Synergy 2 microplate reader (BioTek, Winooski, Vt.). […]

Data set [2] deals with PPAR responsive elements (PPRE). Put plainly: PPAR luciferase assay (PPRE reporter) in HepG2 cells. The format is cell-based. Conditions: 25 μM, 24 hrs. The protocol: Aliquots of 50 μM PP1 and FF in DMSO were added to 500 μl to heparinized human blood to a final concentration of 50 μM. Following incubation at 37° C. for the indicated time points, the samples were frozen at −80° C., and later prepared for HPLC-based detection of the compounds. Please note that FF is converted to FA in the presence of human blood. […] Data represent average values with standard deviation (n=3). panel B: Water solubility. FF and PP1, were added to water to a final concentration of 50 mM and sonicated in an ultrasonic bath (Branson 1510 Digital Heated Ultrasonic bath) for one hour at room temperature. The samples were then centrifuged for 10 minutes at 16000×g, and the supernatant filtered through 0.45 μm syringe filter. Water solubilized PP1 and FF were subsequently processed for HPLC analysis (see Methods). Data represent average values with standard deviation (n=3). panel C: Effects of PP compounds on PPAR responsive elements (PPRE). The PPAR transcriptional activity was determined in HepG2 cells by the JsTkpGL3 reporter plasmid, which contains a firefly luciferase gene driven by the PPRE, which consists of three copies of the J site from the apo-AII gene promoter. To normalize for efficiency of transfection the cells were additionally transfected with the pSV40-GLuc (New England Biolabs, Ipswich, Mass.) control plasmid. […] The luciferase activity was detected with Dual-Luciferase reporter assay system (Promega, Madison, Wis.), and the resulting luminescence measured with Synergy 2 microplate reader (BioTek, Winooski, Vt.). Data represent average values with standard deviation (n=6).
PPAR Luciferase Assay—The PPAR transcriptional activity was determined by utilizing the JsTkpGL3 reporter plasmid, which contains a firefly luciferase gene driven by the PPAR responsive element (PPRE), which consists of three copies of the J site from the apo-AII gene promoter. Together with JsTkpGL3 plasmid HepG2 cells were transfected with pSV40-GLuc (New England Biolabs, Ipswich, Mass.) control plasmid expressing Gaussia luciferase under the control of the constitutive SV40 early promoter to normalize for efficiency of transfection. […] The luciferase activity was detected with Dual-Luciferase reporter assay system (Promega, Madison, Wis.), and the resulting luminescence measured with Synergy 2 microplate reader (BioTek, Winooski, Vt.).

Data set [3] in a line: PP1 tissue distribution after oral administration (HPLC). The data set is classed as in vivo, C57BL/6 mice. On the procedure:
Panel A: PP1 accumulation in different tissues following oral administration of PP1 (25 mg/kg). C57BL/6 mice were treated daily for 14 days, and the levels of PP1 in the blood, liver, spleen, kidney, heart, brain and in brain tumors, were evaluated by HPLC, as previously described. Data represent average values with standard deviation (n=3). Panel B: Body weight of C57BL/6 mice treated with PP1. Mice were treated with the PP1 at doses ranging from 25 to 75 mg/kg/day administered by oral gavage. Following 7 and 14 days of daily drug administration both control (DMSO-treated) and experimental (PP1-treated) mice were weighted. Data represent average values with standard deviation (at least three mice per group were included). In Panels A and B, tumor free and tumor bearing mice were included for the body weight measurement. Panels C, D and E: Intracranial growth of GL-261-Luc cells. C57 black mice, 6-8 weeks of age were anesthetized with 4% isoflurane and secured in a stereotaxic head frame (Harvard Apparatus, Holliston Mass.). GL-261-luc cells (1×10^5 cells in 2 μl; PerkinElmer Inc.) were injected into the brain parenchyma (coordinates: 3 mm anterior to Bregma; 1.5 mm lateral to Sagital suture; 3 mm down from surface) through a burr hole in the skull using a 10 μl Hamilton syringe. Panel C: Mice with large intracranial tumors were selected using bioluminescence imaging with Xenogen IVIS 200 system. Tumor size is expressed as radiance (photons/s/cm2/sr) and was quantified with the Living Image 4.1 software according to the manufacturer's recommendations (Xenogen). Panels D and E: Pathological evaluation of intracranial tumors and tissues. Following 14 days of drug administration (control: DMSO administered daily by oral gavage; PP1 50 mg/kg administered daily by oral gavage) the animals were euthanized, and the following organs were collected: liver, kidneys, spleen, heart, intact brain and intracranial tumors. The tissues were formalin-fixed, paraffin-embedded, and the resulting thin section were stained with hematoxylin and eosin (H&E) for a routine pathological evaluation.
Detection of PP compounds by high performance liquid chromatography (HPLC) —All HPLC data were obtained from the Agilent 1100 apparatus equipped with a line degasser, binary pump (high pressure mixer), autosampler, column thermostat and Diode Array Detector (DAD) (Agilent Technologies, Santa Clara, Calif.). The analytical column 3 μm, 4.6×150 mm (Octyl Silane C8; YMC America, Inc.), solvent A—50 mM acetic acid in water, and solvent B—acetonitrile, with isocratic flow were used to detect and quantify PP compounds in culture media, in cells, tissues and body fluids. The flow rate was set to 1 ml/min, column temperature was 20° C., and the sample volume was 5 μl. DAD wavelength was set to 285 nm. Sample preparation. Blood, cell culture media, cellular and tissue lysates, were deproteinized by adding 150 μl of acetonitrile to 150 μl of sample, mixed well and centrifuged (15 000 g, 5 min). The lysates were sonicated on ice and centrifuged (15 000 g, 5 min). Finally, 150 μl of the supernatant was mixed with the equal volume of acetonitrile, filtered through 0.22 μm centrifuge filter (Sigma) and analyzed by High Performance Liquid Chromatography (HPLC).
Animal studies—All described procedures involving experimental animals were performed in accordance to the IACUC protocol #3444 at LSUHSC, New Orleans. C57BL/6NHsd mice, 11-12 weeks of age (Envigo), were anesthetized with 4% isoflurane and secured in a stereotaxic head frame (Harvard Apparatus, Holliston Mass.). GL-261-luc cells (1×105) (PerkinElmer Inc.) were suspended in PBS and 2 μl aliquots were injected into the brain parenchyma (coordinates: 3 mm anterior to Bregma; 1.5 mm lateral to Sagital suture; 3 mm down from surface) through a burr hole in the skull using a 10 μl Hamilton syringe. […]

The test system of data set [4] is GBM12 patient-derived human glioblastoma cells. The experiment in a line: Cell death, trypan blue, GBM12. The settings on record: 5-50 μM, 96 h.
Description: (§1) The percentage of cell death was calculated at 96-hour time point for all experimental conditions.
For data set [5], the system named is U-87MG human glioblastoma cell line. Put plainly: Cell death, trypan blue, U-87MG. Conditions: 5-50 μM, 96 h.
Description: as §1
For data set [6], the system named is LN-229 human glioblastoma cells. The settings on record: for % cell death: 72-/96-hour time points.

Where two headings read alike, the source gives them in different places.

The values below come from patent US20220304957A1, “ANTI-CANCER COMPOSITIONS AND METHODS OF USE” (Board of Supervisors of Louisiana State University and …, priority 2019, published 2022).

Turning to `CN(CCO)C(=O)C(C)(C)Oc1ccc(C(=O)c2ccc(Cl)cc2)cc1` [PP1, 2-[4-(4-chlorobenzoyl)phenoxy]-N-(2-hydroxyethyl)-N,2-dimethylpropanamide], the “water solubility in comparison to FF” value in data set [1] was “much better soluble in water”. For the same compound, the “effect on PPAR responsive elements (PPRE)” value in data set [2] is recorded as “attenuate”. Moreover, the concentration at 14 days in data set [3] (C57BL/6, mouse, brain tumor tissue, po, 25 mg/kg, orally administered, mice, read-out: HPLC-measured concentration in the brain tumor tissues) was 5 to 6 µM. Also, in data set [3] (oral gavage daily, 14 days), the “accumulation in the liver” value was determined as 10.3 ± 4.3 µM, the “concentration in intracranial tumors” value worked out at 5.8 ± 0.7 µM, the “level in intact brains” value turned out to be 4.9 ± 3.4 µM and the “level in the blood” value is 3.05 ± 0.2 µM. In addition, in data set [3] (oral gavage daily, 14 days), the “level in the heart” value was found to be 6.1 ± 2.4 µM and the “level in the spleen” value was found to be 7.6 ± 3.2 µM. Moreover, the “accumulation in the kidney” value in data set [3] (oral gavage daily, 14 days, in µM) was 8.8+/−4.7. The “in vitro cytotoxicity” value in data set [4] was “high in vitro cytotoxicity”. Also, in data set [5], the “in vitro cytotoxicity” value was “high in vitro cytotoxicity”. In data set [6] (5 μM), the “% cell death” value is recorded as 74+/−3%. Further, the “% cell death” value in data set [6] (10 μM) is reported as 92+/−2%. In addition, the “cell death” value in data set [6] (25 and 50 μM, 72- and 96-hour time points) was “extensive cell death”. Moreover, the “concentration triggering extensive glioblastoma cell death, fold lower than FF” value in data set [6] (in vitro) is on record as around 5 fold.
